# Measurements as given in patent publication US12377191B2, “Chondroinductive peptides and compositions and methods of use thereof” (The Board of Regents of the University of Oklahoma, priority 2018, dated 2025).
# Where no end group is shown, it is not given here.
# How the values were obtained:
# rBMSC spheroids = test: Collagen II gene expression of rBMSC spheroids (SPPEPS vs TGF-β3); type: cell-based, rat; details: 100 ng/ml SPPEPS; normoxic and hypoxic; n=5
# Experimental: Collagen II gene expression with control (no supplement), TGF-β3, or SPPEPS (1, 100 ng/ml). Hypoxic bars are righthand, normoxic bars are lefthand. n=5, p<0.05 difference from αnormoxic control, βhypoxic control, *normoxic counterpart, SSPPEPS (SEQ ID NO: 2) 1 ng/ml, #normoxic TGF-β3,!all groups.
# [1] = tested on: rat bone marrow mesenchymal stem cells (rBMSCs); test: Preliminary study: chondroinductivity with rBMSCs by rt-PCR; type: cell-based; details: 100 ng/ml in medium, 3 days, p<0.05
# Experimental: In a preliminary study, the chondroinductivities of Link N peptide (SEQ ID NO: 9, Table 2) and SPPEPS (SEQ ID NO:2) with rBMSCs were evaluated at two plate coating densities (0.5 and 1 μg/mm2) and two soluble concentrations (10 and 100 ng/mL) after 3 days by rt-PCR (n=3). For rBMSCs cultured on TCT plates the chondroinductivity was compared with negative control (no growth factor or peptide in the cell culture medium) and positive control group. The positive control was a known chondrogenic growth factor in lieu of the SPPEPS (SEQ ID NO:2) peptide, i.e., 10 ng/ml (dissolved in rBMSCs cell culture medium) human transforming growth factor-β3 (TGF-β3, R&D systems, Minneapolis, MN).
# The gene expressions were analyzed for all the rBMSCs samples cultured on the TCT plates after 3 days (n=6) and all the rBMSCs cultured on the hydrogel surface after 3 days (n=4). The gene expressions of each sample were evaluated in triplicate. […] GAPDH was used as an endogenous control, with relative gene expression measured using the 2^−ΔΔCt method. […]
# [2] = tested on: rat bone marrow mesenchymal stem cells (rBMSCs); test: Gene expression (rt-PCR) of rBMSCs on TCT plates, SPPEPS coated or in medium; type: cell-based
# Experimental: In one set of experimental groups, the SPPEPS (SEQ ID NO:2) peptide was adsorbed to the well plate surface. The peptide was dissolved in sterile DI water (20 μg/mL), sterile-filtered (0.22 μm), and was added to sterile 96-well plates to reach the desired coating concentrations (0.5, 1 and 3 μg/mm2) before overnight water evaporation at room temperature in sterile conditions. The rBMSCs were thawed and after passage 4 were cultured on the plates (150,000 cells/well, i.e., […]), for the control groups the rBMSCs were cultured (150,000 cells/well) on the uncoated TCT plates and the cell culture medium was changed every second day.
# In a separate set of experimental groups, SPPEPS (SEQ ID NO:2) peptide was included in soluble form in the medium instead of being coated on the surface. rBMSCs were cultured on 96-well plates (150,000 cells/well) with cell culture medium containing SPPEPS (SEQ ID NO:2) (50, 100 and 500 ng/ml). The cell culture medium containing the peptide was changed every second day.
# rBMSCs were cultured either on TCT plastic plates or on a hydrogel-coated surface. For the cells cultured on TCT plates, three different concentrations of SPPEPS (SEQ ID NO:2) peptide (50, 100 and 500 ng/ml) in cell culture medium, three different coating concentrations (0.5, 1 and 3 μg/mm2) and a control group (no growth factor or peptide in the cell culture medium) were chosen (n=6) and the peptide chondroinductivity was evaluated by rt-PCR after 3 days (see FIGS. 2-4 and gene expression subsection below).
# The gene expressions were analyzed for all the rBMSCs samples cultured on the TCT plates after 3 days (n=6) and all the rBMSCs cultured on the hydrogel surface after 3 days (n=4). The gene expressions of each sample were evaluated in triplicate. To prepare the samples for gene expression, the mRNAs were extracted after 3 days using Qiagen RNeasy mini kit (Valencia, CA) following the kit instructions, before reverse transcription using a cDNA kit (Invitrogen, Carlsbad, CA). rt-PCR was performed with a qTOWER^3 Thermal Cycler (Upland. CA) using TaqMan Col2A1, Sox9, ACAN and GAPDH primers (Invitrogen, Carlsbad, CA). GAPDH was used as an endogenous control, with relative gene expression measured using the 2^−ΔΔCt method. For cells on both surfaces, the calibrators were the rBMSCs at passage 4 before transferring them to the 96-well plates.
# [3] = 50 ng/ml, 100 ng/ml and 500 ng/ml groups, 3 days
# [4] = 100 ng/ml in medium, 3 days, p<0.05
# [5] = coating 0.5 μg/mm2, 3 days, p<0.05
# [6] = coating 1 μg/mm2, 3 days, p<0.05
# [7] = coating 3 μg/mm2, 3 days, p<0.05
substance,measurement,setting,value
SPPEPS [chondroinductive peptide],chondroinduction (collagen II gene expression) compared to TGF-β3,rBMSC spheroids,outperforms TGF-β3
same,"collagen type II gene expression, times higher than in the control group",[1],2.3 times
same,"Sox9 gene expression, times higher than coating group",[2]; 50 ng/ml in medium vs coating 0.5 μg/mm2,4.5 times
same,"Sox9 gene expression, times higher than coating group",[2]; 50 ng/ml in medium vs coating 1 μg/mm2,4.9 times
same,"Sox9 gene expression, times higher than coating group",[2]; 50 ng/ml in medium vs coating 3 μg/mm2,5.2 times
same,aggrecan gene expression higher compared to the control group,"[2]; 50 ng/ml in medium, 3 days, p<0.05",34%
same,aggrecan gene expression higher than the control group (FIG. 4 legend),[2]; [3],~35%
same,aggrecan gene expression relative to the control group (FIG. 4 legend),[2]; [3],about 1.5 ×
same,collagen type II gene expression higher than the control group (FIG. 3 legend),"[2]; 100 ng/ml in medium, 3 days",35%
same,aggrecan gene expression higher compared to the control group,[2]; [4],35%
same,"collagen type II gene expression, times higher than in the control group",[2]; [4],1.5 times
same,"collagen type II gene expression, times higher compared to SPPEPS 50 ng/mL","[2]; 100 ng/ml in medium, p<0.05",1.5 times
same,"collagen type II gene expression, times higher compared to SPPEPS 500 ng/mL","[2]; 100 ng/ml in medium, p<0.05",1.6 times
same,"Sox9 gene expression, times higher than coating group",[2]; 500 ng/ml in medium vs coating 0.5 μg/mm2,3.2 times
same,"Sox9 gene expression, times higher than coating group",[2]; 500 ng/ml in medium vs coating 1 μg/mm2,3.4 times
same,"Sox9 gene expression, times higher than coating group",[2]; 500 ng/ml in medium vs coating 3 μg/mm2,3.6 times
same,aggrecan gene expression higher compared to the control group,"[2]; 500 ng/ml in medium, 3 days, p<0.05",31%
same,Sox9 gene expression: control group times higher than coating group,[2]; [5],4.0 times
same,collagen type II gene expression lower than in the control group,[2]; [5],61%
same,Sox9 gene expression: control group times higher than coating group,[2]; [6],4.2 times
same,collagen type II gene expression lower than in the control group,[2]; [6],74%
same,Sox9 gene expression: control group times higher than coating group,[2]; [7],4.5 times
same,aggrecan gene expression higher compared to the control group,[2]; [7],31%
same,collagen type II gene expression lower than in the control group,[2]; [7],75%
